Measured values taken from ChEMBL document CHEMBL1130962, “Selective alpha-1a adrenergic receptor antagonists. Effects of pharmacophore regio- and stereochemistry on potency and selectivity” (Bioorg Med Chem Lett, 1998).

Columns and labels:
[1] = target: T1, Alpha-1D adrenergic receptor (Homo sapiens, UniProt P25100); experiment: Binding affinity against human Alpha-1d adrenergic receptor was evaluated by cloned receptor binding assay
T1 sequence (P25100 whole entry): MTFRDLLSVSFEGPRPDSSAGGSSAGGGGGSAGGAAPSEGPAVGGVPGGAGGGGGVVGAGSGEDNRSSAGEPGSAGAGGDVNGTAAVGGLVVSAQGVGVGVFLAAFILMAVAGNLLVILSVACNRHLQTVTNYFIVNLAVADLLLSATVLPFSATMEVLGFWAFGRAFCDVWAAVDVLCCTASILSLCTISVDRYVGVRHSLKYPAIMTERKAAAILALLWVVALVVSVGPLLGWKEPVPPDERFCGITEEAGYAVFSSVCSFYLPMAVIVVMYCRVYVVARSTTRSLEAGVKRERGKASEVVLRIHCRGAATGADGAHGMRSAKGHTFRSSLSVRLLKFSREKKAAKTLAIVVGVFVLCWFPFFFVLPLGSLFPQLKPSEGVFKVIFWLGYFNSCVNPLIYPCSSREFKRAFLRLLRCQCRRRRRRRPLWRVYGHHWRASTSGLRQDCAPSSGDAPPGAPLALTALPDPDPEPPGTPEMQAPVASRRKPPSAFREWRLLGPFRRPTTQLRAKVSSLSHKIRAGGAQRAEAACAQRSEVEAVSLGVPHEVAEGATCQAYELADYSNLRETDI

[2] = target: T2, Alpha-1A adrenergic receptor (Homo sapiens, UniProt P35348); experiment: Binding affinity against human Alpha-1a adrenergic receptor was evaluated by cloned receptor binding assay
T2 sequence (P35348 whole entry): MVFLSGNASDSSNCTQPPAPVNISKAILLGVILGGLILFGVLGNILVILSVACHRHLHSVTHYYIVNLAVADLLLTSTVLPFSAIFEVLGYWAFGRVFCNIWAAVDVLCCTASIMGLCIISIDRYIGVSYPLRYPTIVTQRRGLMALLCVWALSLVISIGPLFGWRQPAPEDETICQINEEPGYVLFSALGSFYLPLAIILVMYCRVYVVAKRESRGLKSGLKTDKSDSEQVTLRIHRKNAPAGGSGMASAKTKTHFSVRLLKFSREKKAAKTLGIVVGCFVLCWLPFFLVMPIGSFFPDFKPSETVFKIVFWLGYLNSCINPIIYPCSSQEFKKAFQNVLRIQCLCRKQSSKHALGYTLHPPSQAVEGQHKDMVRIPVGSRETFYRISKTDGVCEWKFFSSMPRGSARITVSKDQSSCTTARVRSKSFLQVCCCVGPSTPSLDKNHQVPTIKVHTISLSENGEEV

[3] = target: T3, Alpha-1B adrenergic receptor (Homo sapiens, UniProt P35368); experiment: Binding affinity against human Alpha-1b adrenergic receptor was evaluated by cloned receptor binding assay
T3 sequence (P35368 whole entry): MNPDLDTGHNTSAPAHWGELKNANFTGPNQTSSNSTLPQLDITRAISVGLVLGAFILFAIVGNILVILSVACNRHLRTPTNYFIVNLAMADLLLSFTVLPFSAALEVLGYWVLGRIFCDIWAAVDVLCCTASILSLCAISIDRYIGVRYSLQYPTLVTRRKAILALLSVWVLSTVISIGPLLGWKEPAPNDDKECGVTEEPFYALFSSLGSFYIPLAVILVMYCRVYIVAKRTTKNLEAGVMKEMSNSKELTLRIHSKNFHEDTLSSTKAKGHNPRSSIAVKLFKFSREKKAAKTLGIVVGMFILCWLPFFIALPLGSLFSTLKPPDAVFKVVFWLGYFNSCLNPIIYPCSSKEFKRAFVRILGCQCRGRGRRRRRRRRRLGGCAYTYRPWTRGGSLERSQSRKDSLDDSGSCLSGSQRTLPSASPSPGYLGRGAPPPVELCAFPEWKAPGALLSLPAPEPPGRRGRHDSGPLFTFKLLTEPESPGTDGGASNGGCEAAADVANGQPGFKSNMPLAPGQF

Mu-type opioid receptor = Mu-type opioid receptor (Mus musculus, UniProt P42866); experiment: Opioid binding affinity was evaluated using [3H]DAMGO as radioligand
Mu-type opioid receptor, sequence (P42866 whole entry): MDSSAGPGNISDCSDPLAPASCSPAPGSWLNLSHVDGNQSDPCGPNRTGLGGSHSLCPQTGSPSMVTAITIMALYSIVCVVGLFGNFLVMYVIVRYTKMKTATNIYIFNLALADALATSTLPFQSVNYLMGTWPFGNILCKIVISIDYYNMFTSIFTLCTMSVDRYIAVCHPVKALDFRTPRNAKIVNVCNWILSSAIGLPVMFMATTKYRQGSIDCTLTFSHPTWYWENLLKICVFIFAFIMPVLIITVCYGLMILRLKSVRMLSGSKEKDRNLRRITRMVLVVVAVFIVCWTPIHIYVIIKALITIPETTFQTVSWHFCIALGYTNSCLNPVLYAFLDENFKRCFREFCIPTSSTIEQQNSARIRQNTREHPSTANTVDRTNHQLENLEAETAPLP

Row | SMILES | Ki [1] [nM] | Ki [2] [nM] | Ki [3] [nM] | Ki (Mu-type opioid receptor) [nM]
1 | CCOC(=O)[C@H]1CN(CCCCN2C(=O)c3cc(Cl)ccc3S2(=O)=O)CC[C@H]1c1ccccc1 | 1100 | 98 | > 2000 | –
2 | CCOC(=O)[C@@H]1CNCC[C@@H]1c1ccccc1 | – | – | – | 7600
3 | CCOC(=O)[C@H]1CNCC[C@H]1c1ccccc1 | – | – | – | 12000
4 | CCOC(=O)[C@@H]1CN(CCCCN2C(=O)c3cc(Cl)ccc3S2(=O)=O)CC[C@@H]1c1ccccc1 | 480 | 0.51 | 170 | –
5 | O=C1c2ccccc2S(=O)(=O)N1CCCCN1CCN(c2ncccn2)CC1 [IPSAPIRONE] | 46 | 87 | 220 | –
6 | CCOC(=O)C1CN(CCCCN2C(=O)c3cc(Cl)ccc3S2(=O)=O)CCC1c1ccccc1 (racemic) | 1800 | 3 | 940 | –
7 | COC(=O)C1(c2ccccc2)CCN(CCCCN2C(=O)c3cc(Cl)ccc3S2(=O)=O)CC1 | 2000 | 44 | 2200 | –
8 | CCOC(=O)[C@H]1CN(CCCCN2C(=O)c3cc(Cl)ccc3S2(=O)=O)CC[C@@H]1c1ccccc1 (racemic) | 320 | 100 | 1400 | –
9 | CCOC(=O)C1CNCCC1c1ccccc1 (racemic) | – | – | – | 24000
